Test results: patent publication US20170305893A1 (Thomas Helledays Stiftelse for Medicinsk Forskning, priority 2014, published 2017)
pIC50: −log10 of the molar value. Where two headings read alike, the source gives them in different places.

Target: T1, DCTPP1 (Homo sapiens, UniProt Q9H773)
T1 sequence (Q9H773 1-170): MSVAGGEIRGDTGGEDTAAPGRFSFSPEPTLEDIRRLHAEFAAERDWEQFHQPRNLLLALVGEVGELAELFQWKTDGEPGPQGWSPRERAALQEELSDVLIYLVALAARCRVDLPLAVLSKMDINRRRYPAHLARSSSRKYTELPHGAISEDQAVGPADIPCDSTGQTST
Test: DCTPP1 inhibition assay (malachite green)
Type: biochemical
Conditions: 35 nM DCTPP1, 35 μM dCTP, 20 minutes at 22° C.; for IC50: read-out: IC50 (nM), class; for pIC50: read-out: IC50
Protocol: DCTPP1 catalyzes the hydrolysis of dCTP to dCMP and PPi. By coupling the reaction to pyrophosphatase added in excess PPi is converted to Pi that can be detected by using the malachite green assay reagent. […] DCTPP1 diluted in assay buffer (100 mM Tris-acetate, 100 mM KCl, 10 mM magnesium acetate, 1 mM DTT and 0.005% Tween 20) fortified with E. coli pyrophosphatase (0.2 U/mL) is added to a final concentration of 35 nM. dCTP diluted in assay buffer is added to a final concentration of 35 μM. The reaction mixture is incubated with shaking for 20 minutes at 22° C. To 100 μl reaction mixture is added […] Malachite green assay reagent (0.095% Malachite green in 17% H2SO4, 1.5% Ammonium molybdate, 0.17% Tween 20) added followed by incubation with shaking for 15 minutes at 22° C. The absorbance of the assay plate is read at 630 nm using a SpectraMax plate reader (Molecular Devices).

| IC50 | pIC50 | Molecule |
| --- | --- | --- |
| ≥ 1000 nM |  | COc1ccc(Cn2c(C)nc3c([N+](=O)[O-])cccc32)cc1 [Compound 2.2.1, 1-(4-methoxybenzyl)-2-methyl-4-nitro-1H-benzo[d]imidazole] |
| ≥ 1000 nM |  | COc1ccc(Cn2c(-c3ccccc3)nc3c([N+](=O)[O-])cccc32)cc1 [Compound 2.2.2, 1-(4-methoxybenzyl)-4-nitro-2-phenyl-1H-benzo[d]imidazole] |
| ≥ 1000 nM |  | COc1ccc(Cn2c(Cc3ccccc3)nc3c([N+](=O)[O-])cccc32)cc1 [Compound 2.2.3, 2-benzyl-1-(4-methoxybenzyl)-4-nitro-1H-benzo[d]imidazole] |
| ≥ 1000 nM |  | COc1ccc(Cn2c(C(F)(F)F)nc3c([N+](=O)[O-])cccc32)cc1 [Compound 2.2.4, 1-(4-methoxybenzyl)-4-nitro-2-(trifluoromethyl)-1H-benzo[d]imidazole] |
| ≥ 1000 nM |  | COc1ccc(Cn2c(OC)nc3c([N+](=O)[O-])cccc32)cc1 [Compound 2.2.5, 2-methoxy-1-(4-methoxybenzyl)-4-nitro-1H-benzo[d]imidazole] |
| ≥ 1000 nM |  | COCc1nc2c([N+](=O)[O-])cccc2n1Cc1ccc(OC)cc1 [Compound 2.2.6, 1-(4-methoxybenzyl)-2-(methoxymethyl)-4-nitro-1H-benzo[d]imidazole] |
| ≥ 1000 nM |  | COc1ccc(Cn2c(C(C)C)nc3c([N+](=O)[O-])cccc32)cc1 [Compound 2.2.7, 2-isopropyl-1-(4-methoxybenzyl)-4-nitro-1H-benzo[d]imidazole] |
| 100 to 500 nM | 6.69 | O=[N+]([O-])c1cccc2c1nc(C(F)(F)F)n2Cc1ccc(B(O)O)cc1 [Compound 2.2.8, (4-((4-nitro-2-(trifluoromethyl)-1H-benzo[d]imidazol-1-yl)methyl)phenyl)boronic acid] |
|  | 6.39 | Cc1nc2c([N+](=O)[O-])c(F)c(F)cc2n1Cc1ccccc1 [Compound 2.2.10, 1-benzyl-5,6-difluoro-2-methyl-4-nitro-1H-benzo[d]imidazole] |
| ≥ 1000 nM |  | Cc1nc2c([N+](=O)[O-])c(F)c(F)cc2n1Cc1ccc(C#N)cc1 [Compound 2.2.11, 4-((5,6-difluoro-2-methyl-4-nitro-1H-benzo[d]imidazol-1-yl)methyl)benzonitrile] |
| 500 to 1000 nM |  | Cc1nc2c([N+](=O)[O-])c(F)c(F)cc2n1Cc1ccc(F)cc1 [Compound 2.2.12, 5,6-difluoro-1-(4-fluorobenzyl)-2-methyl-4-nitro-1H-benzo[d]imidazole] |
| ≥ 1000 nM |  | Cc1nc2c([N+](=O)[O-])c(F)c(F)cc2n1Cc1ccc(-n2cncn2)cc1 [Compound 2.2.13, 1-(4-(1H-1,2,4-triazol-1-yl)benzyl)-5,6-difluoro-2-methyl-4-nitro-1H-benzo[d]imidazole] |
| ≥ 1000 nM |  | Cc1nc2c([N+](=O)[O-])c(F)c(F)cc2n1C(C)c1ccccc1 (stereo not drawn) [Compound 2.2.14, 5,6-difluoro-2-methyl-4-nitro-1-(1-phenylethyl)-1H-benzo[d]imidazole] |
| 500 to 1000 nM |  | Cc1nc2c([N+](=O)[O-])c(F)c(F)cc2n1Cc1ccc(B(O)O)cc1 [Compound 2.2.15, (4-((5,6-difluoro-2-methyl-4-nitro-1H-benzo[d]imidazol-1-yl)methyl)phenyl)boronic acid] |
| < 100 nM |  | Cc1nc2c([N+](=O)[O-])c(Cl)c(Cl)cc2n1-c1ccccc1 [Compound 2.2.16, 5,6-dichloro-2-methyl-4-nitro-1-phenyl-1H-benzo[d]imidazole] |
| < 100 nM | 7.13 | Cc1nc2c([N+](=O)[O-])c(Cl)c(Cl)cc2n1S(=O)(=O)c1ccccc1 [Compound 2.2.17, 5,6-dichloro-2-methyl-4-nitro-1-(phenylsulfonyl)-1H-benzo[d]imidazole] |
| 100 to 500 nM |  | Cc1nc2c([N+](=O)[O-])c(Cl)c(Cl)cc2n1C(=O)c1ccccc1 [Compound 2.2.18, (5,6-dichloro-2-methyl-4-nitro-1H-benzo[d]imidazol-1-yl)(phenyl)methanone] |
| < 100 nM |  | Cc1nc2c([N+](=O)[O-])c(Cl)c(Cl)cc2n1Cc1ccccc1 [Compound 2.2.19, 1-benzyl-5,6-dichloro-2-methyl-4-nitro-1H-benzo[d]imidazole] |

| IC50 | pIC50 | Molecule |
| --- | --- | --- |
| < 100 nM | 7.39 | COc1ccc(Cn2c(C)nc3c([N+](=O)[O-])c(Cl)c(Cl)cc32)cc1 [Compound 2.2.20, 5,6-dichloro-1-(4-methoxybenzyl)-2-methyl-4-nitro-1H-benzo[d]imidazole] |
| 100 to 500 nM |  | COc1cccc(Cn2c(C)nc3c([N+](=O)[O-])c(Cl)c(Cl)cc32)c1 [Compound 2.2.21, 5,6-dichloro-1-(3-methoxybenzyl)-2-methyl-4-nitro-1H-benzo[d]imidazole] |
| < 100 nM |  | CC(=O)Oc1ccc(Cn2c(C)nc3c([N+](=O)[O-])c(Cl)c(Cl)cc32)cc1 [Compound 2.2.22, 4-((5,6-dichloro-2-methyl-4-nitro-1H-benzo[d]imidazol-1-yl)methyl)phenyl acetate] |
| < 100 nM |  | Cc1nc2c([N+](=O)[O-])c(Cl)c(Cl)cc2n1Cc1ccc(O)cc1 [Compound 2.2.25, 4-((5,6-dichloro-2-methyl-4-nitro-1H-benzo[d]imidazol-1-yl)methyl)phenol] |
| < 100 nM |  | Cc1ccc(Cn2c(C)nc3c([N+](=O)[O-])c(Cl)c(Cl)cc32)cc1 [Compound 2.2.26, 5,6-dichloro-2-methyl-1-(4-methylbenzyl)-4-nitro-1H-benzo[d]imidazole] |
| 100 to 500 nM |  | Cc1nc2c([N+](=O)[O-])c(Cl)c(Cl)cc2n1Cc1ccc(C=O)cc1 [Compound 2.2.27, 4-((5,6-dichloro-2-methyl-4-nitro-1H-benzo[d]imidazol-1-yl)methyl)benzaldehyde] |
| < 100 nM |  | Cc1nc2c([N+](=O)[O-])c(Cl)c(Cl)cc2n1Cc1ccc(C=NO)cc1 [Compound 2.2.28, 4-((5,6-dichloro-2-methyl-4-nitro-1H-benzo[d]imidazol-1-yl)methyl)benzaldehyde oxime] |
| < 100 nM |  | C=CC(=O)c1ccc(Cn2c(C)nc3c([N+](=O)[O-])c(Cl)c(Cl)cc32)cc1 [Compound 2.2.30, 1-(4-((5,6-dichloro-2-methyl-4-nitro-1H-benzo[d]imidazol-1-yl)methyl)phenyl)prop-2-en-1-one] |
| < 100 nM |  | C=CC(=O)Nc1ccc(Cn2c(C)nc3c([N+](=O)[O-])c(Cl)c(Cl)cc32)cc1 [Compound 2.2.32, N-(4-((5,6-dichloro-2-methyl-4-nitro-1H-benzo[d]imidazol-1-yl)methyl)phenyl)acrylamide] |
| 100 to 500 nM |  | Cc1n[nH]c(C)c1CCn1c(C)nc2c([N+](=O)[O-])c(Cl)c(Cl)cc21 [Compound 2.2.33, 5,6-dichloro-1-(2-(3,5-dimethyl-1H-pyrazol-4-yl)ethyl)-2-methyl-4-nitro-1H-benzo[d]imidazole] |
| < 100 nM |  | Cc1nc2c([N+](=O)[O-])c(Cl)c(Cl)cc2n1Cc1ccc(-n2cccn2)cc1 [Compound 2.2.34, 1-(4-(1H-pyrazol-1-yl)benzyl)-5,6-dichloro-2-methyl-4-nitro-1H-benzo[d]imidazole] |
| 500 to 1000 nM |  | Cc1nc2c([N+](=O)[O-])c(Cl)c(Cl)cc2n1Cc1ccc(-n2cncn2)cc1 [Compound 2.2.35, 1-(4-(1H-1,2,4-triazol-1-yl)benzyl)-5,6-dichloro-2-methyl-4-nitro-1H-benzo[d]imidazole] |
| < 100 nM |  | Cc1nc2c([N+](=O)[O-])c(Cl)c(Cl)cc2n1Cc1ccc(C(=O)O)cc1 [Compound 2.2.37, 4-((5,6-dichloro-2-methyl-4-nitro-1H-benzo[d]imidazol-1-yl)methyl)benzoic acid] |
| 100 to 500 nM |  | COC(=O)c1ccc(Cn2c(C)nc3c([N+](=O)[O-])c(Cl)c(Cl)cc32)cc1 [Compound 2.2.38, methyl 4-((5,6-dichloro-2-methyl-4-nitro-1H-benzo[d]imidazol-1-yl)methyl)benzoate] |
| < 100 nM |  | Cc1nc2c([N+](=O)[O-])c(Cl)c(Cl)cc2n1Cc1ccc(C(N)=O)cc1 [Compound 2.2.39, 4-((5,6-dichloro-2-methyl-4-nitro-1H-benzo[d]imidazol-1-yl)methyl)benzamide] |
| 100 to 500 nM |  | Cc1nc2c([N+](=O)[O-])c(Cl)c(Cl)cc2n1Cc1ccc(C#N)cc1 [Compound 2.2.40, 4-((5,6-dichloro-2-methyl-4-nitro-1H-benzo[d]imidazol-1-yl)methyl)benzonitrile] |
| 100 to 500 nM |  | Cc1nc2c([N+](=O)[O-])c(Cl)c(Cl)cc2n1Cc1ccc(S(C)(=O)=O)cc1 [Compound 2.2.41, 5,6-dichloro-2-methyl-1-(4-(methylsulfonyl)benzyl)-4-nitro-1H-benzo[d]imidazole] |
| 100 to 500 nM |  | Cc1nc(Cn2c(C)nc3c([N+](=O)[O-])c(Cl)c(Cl)cc32)cs1 [Compound 2.2.42, 4-((5,6-dichloro-2-methyl-4-nitro-1H-benzo[d]imidazol-1-yl)methyl)-2-methylthiazole] |

| Molecule | IC50 | pIC50 |
| --- | --- | --- |
| 1-(4-methoxybenzyl)-4-nitro-1H-benzo[d]imidazole [Compound 2.2.62] | ≥ 1000 nM |  |
| 5,6-dichloro-2-methyl-4-nitro-1-(4-(trifluoro-l4-boranyl)benzyl)-1H-benzo[d]imidazole [Compound 2.2.48] | < 100 nM | 7.41 |
